Data reported in patent publication US8999942B2, “Polyol modified aminoglycoside-lipid conjugates” (University of Manitoba, priority 2010, dated 2015).
Values after ≈ are worked out from the molar mass of the structure shown.

Legend:
[1] = tested on: S. aureus ATCC 29213; assay: MIC, broth macrodilution (CLSI), S. aureus ATCC 29213; type: cell-based, Staphylococcus aureus
Protocol: (§1) All compounds were tested against American Type Culture Collection (ATCC) reference strains as well as clinical isolates from the Canadian Intensive Care Unit (CAN-ICU) study (Zhanel, et al., 2008). […] Antibacterial activity against Gram-positive and Gram-negative microorganisms was performed via broth macrodilution tests using CLSI methodology (Clinical and Laboratory Standards Institute, 2006). The minimum inhibitory concentration (MIC) in μg/mL of the aminoglycoside-derived amphiphilic polycarbamates and polyethers were determined using established methods (Clinical and Laboratory Standards Institute, 2006) and are shown in Tables 1 and 2, respectively.

[2] = tested on: methicillin-resistant Staphylococcus aureus (MRSA) ATCC 33592; assay: MIC, broth macrodilution (CLSI), MRSA ATCC 33592; type: cell-based; settings: MRSA, methicillin-resistant S. aureus ATCC 33592
Protocol: as §1

[3] = tested on: S. epidermidis ATCC 14990; assay: MIC, broth macrodilution (CLSI), S. epidermidis; type: cell-based, Staphylococcus epidermidis; settings: for Minimal Inhibitory Concentration (MIC): footnote ATCC 1490
Protocol: as §1

[4] = tested on: methicillin-resistant Staphylococcus epidermidis (MRSE) CAN-ICU 61589; assay: MIC, broth macrodilution (CLSI), MRSE; type: cell-based; settings: methicillin-resistant S. epidermidis, footnote (ATCC 14990)
Protocol: as §1

[5] = tested on: Streptococcus pneumoniae ATCC 49619; assay: MIC, broth macrodilution (CLSI), S. pneumoniae ATCC 49619; type: cell-based
Protocol: as §1

[6] = tested on: E. coli ATCC 25922; assay: MIC, broth macrodilution (CLSI), E. coli ATCC 25922; type: cell-based
Protocol: as §1

[7] = tested on: E. coli (Gentamicin-resistant) CAN-ICU 61714; assay: MIC, broth macrodilution (CLSI), gentamicin-resistant E. coli; type: cell-based; settings: for Minimal Inhibitory Concentration (MIC): footnote ATCC 6174 (gentamicin resistant)
Protocol: as §1

[8] = tested on: E. coli (Amikacin MIC 32) CAN-ICU 63074; assay: MIC, broth macrodilution (CLSI), E. coli CAN-ICU 63074; type: cell-based
Protocol: as §1

[9] = tested on: Pseudomonas aeruginosa ATCC 27853; assay: MIC, broth macrodilution (CLSI), P. aeruginosa ATCC 27853; type: cell-based
Protocol: as §1

[10] = tested on: P. aeruginosa (Gent-R) CAN-ICU 62308; assay: MIC, broth macrodilution (CLSI), P. aeruginosa CAN-ICU 62308; type: cell-based, Pseudomonas aeruginosa
Protocol: as §1

[11] = tested on: Stenotrophomonas maltophilia (CAN-ICU 62585); assay: MIC, broth macrodilution (CLSI), S. maltophilia; type: cell-based; settings: S. maltophilia, footnote CAN-ICU 62584
Protocol: as §1

[12] = tested on: Acinetobacter baumanni (CAN-ICU 63169); assay: MIC, broth macrodilution (CLSI), A. baumannii; type: cell-based; settings: A. baumannii CAN-ICU 63169
Protocol: as §1

[13] = tested on: S. pneumoniae ATCC 13883; assay: MIC, broth macrodilution (CLSI), S. pneumoniae ATCC 13883; type: cell-based
Protocol: as §1

| Structure (SMILES) | Minimal Inhibitory Concentration (MIC) [1] | Minimal Inhibitory Concentration (MIC) [2] | Minimal Inhibitory Concentration (MIC) [3] | Minimal Inhibitory Concentration (MIC) [4] | Minimal Inhibitory Concentration (MIC) [5] | Minimal Inhibitory Concentration (MIC) [6] | Minimal Inhibitory Concentration (MIC) [7] | Minimal Inhibitory Concentration (MIC) [8] | Minimal Inhibitory Concentration (MIC) [9] | Minimal Inhibitory Concentration (MIC) [10] | Minimal Inhibitory Concentration (MIC) [11] | Minimal Inhibitory Concentration (MIC) [12] | Minimal Inhibitory Concentration (MIC) [13] | other results |
| --- | --- | --- | --- | --- | --- | --- | --- | --- | --- | --- | --- | --- | --- | --- |
| NCC[C@H](O)C(=O)N[C@@H]1C[C@H](N)[C@@H](O[C@H]2O[C@H](CN)[C@@H](O)[C@H](O)[C@H]2O)[C@H](O)[C@H]1O[C@H]1O[C@H](CO)[C@@H](O)[C@H](N)[C@H]1O [Amikacin, reference compound] | – | – | – | – | – | – | – | – | – | – | – | – | – | MIC ([1]; Staphylococcus aureus, ATCC29213, read-out: Minimal Inhibitory Concentration (MIC)): 4 µg/mL (≈ 6.83 µM); MIC ([2]; Staphylococcus aureus, read-out: Minimal Inhibitory Concentration (MIC)): 8 µg/mL (≈ 13.7 µM); MIC ([3]; Staphylococcus epidermidis, ATCC 1490 / ATCC 14990, footnote ATCC 1490, read-out: Minimal Inhibitory Concentration (MIC)): 1 µg/mL (≈ 1.71 µM); MIC ([4]; Staphylococcus epidermidis, ATCC 14990 / MRSE, read-out: Minimal Inhibitory Concentration (MIC)): 2 µg/mL (≈ 3.42 µM); MIC ([5]; Streptococcus pneumoniae, ATCC49619, read-out: Minimal Inhibitory Concentration (MIC)): 8 µg/mL (≈ 13.7 µM); MIC ([6]; Escherichia coli, ATCC25922, read-out: Minimal Inhibitory Concentration (MIC)): 4 µg/mL (≈ 6.83 µM); MIC ([7]; Escherichia coli, ATCC6174, footnote ATCC 6174 (gentamicin resistant), read-out: Minimal Inhibitory Concentration (MIC)): 2 µg/mL (≈ 3.42 µM); MIC ([8]; Escherichia coli, read-out: Minimal Inhibitory Concentration (MIC)): 32 µg/mL (≈ 54.6 µM); MIC ([9]; Pseudomonas aeruginosa, ATCC27853, read-out: Minimal Inhibitory Concentration (MIC)): 4 µg/mL (≈ 6.83 µM); MIC ([10]; Pseudomonas aeruginosa, read-out: Minimal Inhibitory Concentration (MIC)): 128 µg/mL (≈ 219 µM); MIC ([11]; Stenotrophomonas maltophilia, read-out: Minimal Inhibitory Concentration (MIC)): > 512 µg/mL; MIC ([12]; read-out: Minimal Inhibitory Concentration (MIC)): 128 µg/mL (≈ 219 µM); MIC ([13]; Streptococcus pneumoniae, ATCC13883, read-out: Minimal Inhibitory Concentration (MIC)): 0.5 µg/mL (≈ 0.854 µM) |
| NCC1OC(OC2C(N)CC(N)C(OC(=O)Nc3ccc(Cl)cc3)C2OC2OC(COC(=O)Nc3ccc(Cl)cc3)C(OC3OC(CN)C(OC(=O)Nc4ccc(Cl)cc4)C(OC(=O)Nc4ccc(Cl)cc4)C3N)C2OC(=O)Nc2ccc(Cl)cc2)C(N)C(OC(=O)Nc2ccc(Cl)cc2)C1OC(=O)Nc1ccc(Cl)cc1.O=C(O)C(F)(F)F.O=C(O)C(F)(F)F.O=C(O)C(F)(F)F.O=C(O)C(F)(F)F.O=C(O)C(F)(F)F.O=C(O)C(F)(F)F (stereo not drawn) [Compound 2] | 64 µg/mL | 64 µg/mL | 16 µg/mL | 32 µg/mL | 128 µg/mL | >256 µg/mL | >256 µg/mL | 256 µg/mL | >256 µg/mL | 256 µg/mL | 128 µg/mL | >256 µg/mL | 256 µg/mL | – |
| CCCCCCNC(=O)OCC1OC(OC2C(OC(=O)NCCCCCC)C(N)CC(N)C2OC2OC(CN)C(OC(=O)NCCCCCC)C(OC(=O)NCCCCCC)C2N)C(OC(=O)NCCCCCC)C1OC1OC(CN)C(OC(=O)NCCCCCC)C(OC(=O)NCCCCCC)C1N.O=C(O)C(F)(F)F.O=C(O)C(F)(F)F.O=C(O)C(F)(F)F.O=C(O)C(F)(F)F.O=C(O)C(F)(F)F.O=C(O)C(F)(F)F (stereo not drawn) [Compound 3] | 2 µg/mL | 256 µg/mL | 1 µg/mL | 2 µg/mL | 8 µg/mL | 8 µg/mL | 8 µg/mL | 32 µg/mL | >256 µg/mL | 256 µg/mL | >256 µg/mL | >256 µg/mL | 4 µg/mL | – |
| NC[C@@H]1O[C@H](O[C@H]2[C@@H](O)[C@H](O[C@@H]3[C@@H](O)[C@H](N)C[C@H](N)[C@H]3O[C@H]3O[C@H](CN)[C@@H](O)[C@H](O)[C@H]3N)O[C@@H]2CO)[C@H](N)[C@@H](O)[C@@H]1O [Neomycin B, reference compound] | 1 µg/mL | 256 µg/mL | 0.25 µg/mL | 0.5 µg/mL | 32 µg/mL | 4 µg/mL | 8 µg/mL | – | 512 µg/mL | 512 µg/mL | >512 µg/mL | 64 µg/mL | 1 µg/mL | – |
